This assay deals with human NaV 1.8 (Homo sapiens, UniProt Q9Y5Y9). Kind of assay: E-VIPR assay for detecting and measuring NaV inhibition properties. The format is cell-based. To be noted: E-VIPR assay conducted in the presence of human serum; HEK cells expressing truncated human NaV 1.8; read-out: IC50. The method in brief: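 Membrane-potential (coumarin/oxonol) readout after 10 s of 10 Hz biphasic electrical stimulation on E-VIPR. Compounds: 11-point 3-fold dilutions, […], 0.625% DMSO, 30 min at room temperature, human serum optional. Cells: HEK expressing truncated human NaV1.8 co-transduced with KIR2.1.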
human NaV 1.8, sequence (Q9Y5Y9 whole entry, looked up, the tested form may be a part): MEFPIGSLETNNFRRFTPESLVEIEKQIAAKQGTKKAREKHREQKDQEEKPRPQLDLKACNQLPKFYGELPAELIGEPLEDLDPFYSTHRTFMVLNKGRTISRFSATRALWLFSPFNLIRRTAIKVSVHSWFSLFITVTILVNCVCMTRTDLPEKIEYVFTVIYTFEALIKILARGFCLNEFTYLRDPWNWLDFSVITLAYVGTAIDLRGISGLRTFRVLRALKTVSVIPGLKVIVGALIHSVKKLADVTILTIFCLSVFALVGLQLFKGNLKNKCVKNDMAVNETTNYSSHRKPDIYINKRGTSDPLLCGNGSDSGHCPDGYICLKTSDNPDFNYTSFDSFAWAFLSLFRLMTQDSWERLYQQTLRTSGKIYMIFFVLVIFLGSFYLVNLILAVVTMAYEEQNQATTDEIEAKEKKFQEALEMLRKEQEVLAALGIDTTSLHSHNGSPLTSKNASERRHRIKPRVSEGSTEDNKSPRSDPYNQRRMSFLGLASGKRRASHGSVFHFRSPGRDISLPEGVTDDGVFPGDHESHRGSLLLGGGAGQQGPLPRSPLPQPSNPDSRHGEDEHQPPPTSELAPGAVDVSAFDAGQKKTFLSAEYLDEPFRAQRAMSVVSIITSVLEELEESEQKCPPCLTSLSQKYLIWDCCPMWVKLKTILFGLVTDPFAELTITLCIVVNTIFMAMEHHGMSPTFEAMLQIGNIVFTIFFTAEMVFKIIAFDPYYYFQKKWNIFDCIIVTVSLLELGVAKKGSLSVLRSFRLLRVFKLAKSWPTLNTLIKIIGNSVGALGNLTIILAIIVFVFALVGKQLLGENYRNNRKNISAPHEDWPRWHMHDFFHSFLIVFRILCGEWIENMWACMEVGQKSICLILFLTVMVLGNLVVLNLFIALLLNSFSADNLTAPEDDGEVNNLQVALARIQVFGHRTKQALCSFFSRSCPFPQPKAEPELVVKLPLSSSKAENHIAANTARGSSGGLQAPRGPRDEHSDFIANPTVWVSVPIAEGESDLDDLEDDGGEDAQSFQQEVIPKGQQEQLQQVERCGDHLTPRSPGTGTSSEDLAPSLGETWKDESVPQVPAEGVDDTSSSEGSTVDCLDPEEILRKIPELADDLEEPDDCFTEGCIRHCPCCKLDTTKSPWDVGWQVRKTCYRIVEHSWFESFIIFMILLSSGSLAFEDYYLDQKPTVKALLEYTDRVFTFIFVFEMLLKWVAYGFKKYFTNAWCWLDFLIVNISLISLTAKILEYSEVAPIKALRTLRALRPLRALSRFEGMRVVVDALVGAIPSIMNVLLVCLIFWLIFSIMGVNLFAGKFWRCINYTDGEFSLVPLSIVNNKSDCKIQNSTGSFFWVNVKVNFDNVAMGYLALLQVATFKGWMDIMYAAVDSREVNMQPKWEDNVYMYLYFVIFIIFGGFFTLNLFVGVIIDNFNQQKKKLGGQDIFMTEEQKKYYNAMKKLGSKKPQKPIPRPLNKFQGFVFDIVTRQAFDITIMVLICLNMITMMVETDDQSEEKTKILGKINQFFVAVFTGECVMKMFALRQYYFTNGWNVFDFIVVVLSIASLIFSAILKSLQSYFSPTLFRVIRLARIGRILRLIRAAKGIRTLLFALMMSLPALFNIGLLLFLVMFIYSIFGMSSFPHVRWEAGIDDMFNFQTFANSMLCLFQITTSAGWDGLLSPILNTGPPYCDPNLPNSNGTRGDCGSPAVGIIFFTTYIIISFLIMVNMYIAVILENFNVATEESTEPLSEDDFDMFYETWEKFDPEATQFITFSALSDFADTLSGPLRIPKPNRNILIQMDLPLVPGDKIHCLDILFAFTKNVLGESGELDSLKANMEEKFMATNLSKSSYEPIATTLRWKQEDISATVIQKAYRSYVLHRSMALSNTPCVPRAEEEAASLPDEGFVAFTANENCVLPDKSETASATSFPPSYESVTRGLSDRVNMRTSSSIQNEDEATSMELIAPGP
Turning to `NC(=O)c1ccc(NC(=O)c2c(Oc3ccc(OC(F)(F)F)c(F)c3Cl)ccc(C(F)(F)F)c2F)cn1` [Compound 297, 5-[[6-[2-Chloro-3-Fluoro-4-(Trifluoromethoxy)Phenoxy]-2-Fluoro-3-(Trifluoromethyl)Benzoyl]Amino]Pyridine-2-Carboxamide], the IC50 was 74 nM.
Turning to `NC(=O)c1cc(NC(=O)c2c(Oc3ccc(OC(F)(F)F)c(F)c3Cl)ccc(C(F)(F)F)c2F)ccn1` [Compound 298, 4-[[6-[2-Chloro-3-Fluoro-4-(Trifluoromethoxy)Phenoxy]-2-Fluoro-3-(Trifluoromethyl)Benzoyl]Amino]Pyridine-2-Carboxamide], the IC50 amounted to 9.8 nM.
For `COc1cc(Oc2ccc(F)c(F)c2OC)c(C(=O)Nc2ccnc(C(N)=O)c2)c(F)c1C(F)(F)F` [Compound 299, 4-[[6-(3,4-Difluoro-2-Methoxy-Phenoxy)-2-Fluoro-4-Methoxy-3-(Trifluoromethyl)Benzoyl]Amino]Pyridine-2-Carboxamide], the 50% inhibitory concentration (IC50) came to 6.4 nM.
The result for `CNC(=O)c1cc(NC(=O)c2c(Oc3ccc(F)c(F)c3OC)cc(OC)c(C(F)(F)F)c2NC)ccn1` [Compound 300, 4-[[6-(3,4-Difluoro-2-Methoxy-Phenoxy)-4-Methoxy-2-(Methylamino)-3-(Trifluoromethyl)Benzoyl]Amino]-N-Methyl-Pyridine-2-Carboxamide] reads 1400 nM.
Take `CNC(=O)c1cc(NC(=O)c2c(Oc3ccc(F)c(F)c3OC)cc(OC)c(C(F)(F)F)c2F)ccn1` [Compound 301, 4-[[6-(3,4-Difluoro-2-Methoxy-Phenoxy)-2-Fluoro-4-Methoxy-3-(Trifluoromethyl)Benzoyl]Amino]-N-Methyl-Pyridine-2-Carboxamide]: the IC50 amounted to 22 nM.
Regarding `COc1c(Oc2cnc(C(F)(F)F)c(OC)c2C(=O)Nc2cc(C(N)=O)ncc2C)ccc(F)c1F` [Compound 302, N-(2-carbamoyl-5-methyl-4-pyridyl)-5-(3,4-difluoro-2-methoxy-phenoxy)-3-methoxy-2-(trifluoromethyl)pyridine-4-carboxamide], the IC50 came out at 280 nM.
As to `COc1c(Oc2ccc(F)c(F)c2C(=O)Nc2ccnc(C(N)=O)c2)ccc(OC(F)(F)F)c1F` [Compound 303, 4-[[2,3-difluoro-6-[3-fluoro-2-methoxy-4-(trifluoromethoxy)phenoxy]benzoyl]amino]pyridine-2-carboxamide], the half-inhibitory concentration (IC50) was 19 nM.
The result for `COc1c(Oc2ccc(F)c(F)c2C(=O)Nc2cc(C(N)=O)ncc2C)ccc(OC(F)(F)F)c1F` [Compound 304, 4-[[2,3-difluoro-6-[3-fluoro-2-methoxy-4-(trifluoromethoxy)phenoxy]benzoyl]amino]-5-methyl-pyridine-2-carboxamide] reads 54 nM.
The value for `COc1c(Oc2ccc(Cl)c(F)c2C(=O)Nc2ccnc(C(N)=O)c2)ccc(OC(F)(F)F)c1F` [Compound 305, 4-[[3-chloro-2-fluoro-6-[3-fluoro-2-methoxy-4-(trifluoromethoxy)phenoxy]benzoyl]amino]pyridine-2-carboxamide] was 2.3 nM.
For the compound `COc1c(Oc2ccc(Cl)c(F)c2C(=O)Nc2ccc(C(N)=O)nc2)ccc(OC(F)(F)F)c1F` [Compound 306, 5-[[3-chloro-2-fluoro-6-[3-fluoro-2-methoxy-4-(trifluoromethoxy)phenoxy]benzoyl]amino]pyridine-2-carboxamide], the IC50 came to 19 nM.
For `COc1c(Oc2cc(F)c(F)c(F)c2C(=O)Nc2ccnc(C(N)=O)c2)ccc(OC(F)(F)F)c1F` [Compound 307, 4-[[2,3,4-trifluoro-6-[3-fluoro-2-methoxy-4-(trifluoromethoxy)phenoxy]benzoyl]amino]pyridine-2-carboxamide], the half-maximal inhibitory concentration (IC50) is 5.9 nM.
Take `COc1c(Oc2cc(F)c(F)c(F)c2C(=O)Nc2cnc(C(N)=O)nc2)ccc(OC(F)(F)F)c1F` [Compound 308, 5-[[2,3,4-trifluoro-6-[3-fluoro-2-methoxy-4-(trifluoromethoxy)phenoxy]benzoyl]amino]pyrimidine-2-carboxamide]: the IC50 is 36 nM.
For `COc1c(Oc2cc(Cl)c(C)c(F)c2C(=O)Nc2ccnc(C(N)=O)c2)ccc(OC(F)(F)F)c1F` [Compound 309, 4-[[4-chloro-2-fluoro-6-[3-fluoro-2-methoxy-4-(trifluoromethoxy)phenoxy]-3-methyl-benzoyl]amino]pyridine-2-carboxamide], the IC50 worked out at 1.4 nM.
Take `COc1c(Oc2ccc(C3CCC3)c(F)c2C(=O)Nc2ccnc(C(N)=O)c2)ccc(OC(F)(F)F)c1F` [Compound 310, 4-[[3-cyclobutyl-2-fluoro-6-[3-fluoro-2-methoxy-4-(trifluoromethoxy)phenoxy]benzoyl]amino]pyridine-2-carboxamide]: the 50% inhibitory concentration (IC50) came to 2.5 nM.
Regarding `COc1c(Oc2cc3c(cc2C(=O)Nc2ccnc(C(N)=O)c2)OC(F)(F)O3)ccc(OC(F)(F)F)c1F` [Compound 311, 4-[[2,2-difluoro-6-[3-fluoro-2-methoxy-4-(trifluoromethoxy)phenoxy]-1,3-benzodioxole-5-carbonyl]amino]pyridine-2-carboxamide], the IC50 worked out at 13 nM.
As for `COc1c(Oc2ccc(C(F)(F)F)c(C)c2C(=O)Nc2cc(C(N)=O)ncc2C)ccc(OC(F)(F)F)c1F` [Compound 312, 4-[[6-[3-fluoro-2-methoxy-4-(trifluoromethoxy)phenoxy]-2-methyl-3-(trifluoromethyl)benzoyl]amino]-5-methyl-pyridine-2-carboxamide], the half-maximal inhibitory concentration (IC50) came out at 7.9 nM.
As for `COc1c(Oc2ccc(C(F)(F)F)c(C)c2C(=O)Nc2cc(C(N)=O)ccn2)ccc(OC(F)(F)F)c1F` [Compound 313, 2-[[6-[3-fluoro-2-methoxy-4-(trifluoromethoxy)phenoxy]-2-methyl-3-(trifluoromethyl)benzoyl]amino]pyridine-4-carboxamide], the half-inhibitory concentration (IC50) came out at 121 nM.
For the compound `COc1c(Oc2ccc(C(F)(F)F)c(C)c2C(=O)Nc2cnc(C(N)=O)nc2)ccc(OC(F)(F)F)c1F` [Compound 314, 5-[[6-[3-fluoro-2-methoxy-4-(trifluoromethoxy)phenoxy]-2-methyl-3-(trifluoromethyl)benzoyl]amino]pyrimidine-2-carboxamide], the IC50 was determined as 6.5 nM.
The value for `COc1c(Oc2ccc(C(F)(F)F)c(C)c2C(=O)Nc2cc(C(N)=O)ncn2)ccc(OC(F)(F)F)c1F` [Compound 315, 6-[[6-[3-fluoro-2-methoxy-4-(trifluoromethoxy)phenoxy]-2-methyl-3-(trifluoromethyl)benzoyl]amino]pyrimidine-4-carboxamide] was 120 nM; that for `COc1c(Oc2ccc(C(F)(F)F)c(C)c2C(=O)Nc2cnc(C(N)=O)cn2)ccc(OC(F)(F)F)c1F` [Compound 316, 5-[[6-[3-fluoro-2-methoxy-4-(trifluoromethoxy)phenoxy]-2-methyl-3-(trifluoromethyl)benzoyl]amino]pyrazine-2-carboxamide] was 24 nM; that for `COc1c(Oc2ccc(C(F)(F)F)c(C)c2C(=O)Nc2ccc(C(N)=O)nn2)ccc(OC(F)(F)F)c1F` [Compound 317, 6-[[6-[3-fluoro-2-methoxy-4-(trifluoromethoxy)phenoxy]-2-methyl-3-(trifluoromethyl)benzoyl]amino]pyridazine-3-carboxamide] was 520 nM.
For the compound `COc1c(Oc2cc(C(F)(F)F)cc(F)c2C(=O)Nc2cc(C(N)=O)ncc2C)ccc(OC(F)(F)F)c1F` [Compound 318, 4-[[2-fluoro-6-[3-fluoro-2-methoxy-4-(trifluoromethoxy)phenoxy]-4-(trifluoromethyl)benzoyl]amino]-5-methyl-pyridine-2-carboxamide], the 50% inhibitory concentration (IC50) came out at 15.1 nM.
Take `[2H]C([2H])([2H])Oc1c(Oc2ccc(C(F)F)c(OC)c2C(=O)Nc2ccnc(C(N)=O)c2)ccc(OC(F)(F)F)c1F` [Compound 319, 4-[[3-(difluoromethyl)-6-[3-fluoro-2-(trideuteriomethoxy)-4-(trifluoromethoxy)phenoxy]-2-methoxy-benzoyl]amino]pyridine-2-carboxamide]: the IC50 is 5.2 nM.
The result for `COc1cc(Oc2ccc(OC(F)(F)F)c(F)c2OC)c(C(=O)Nc2ccnc(C(N)=O)c2)c(F)c1C(F)(F)F` [Compound 320, 4-[[2-fluoro-6-[3-fluoro-2-methoxy-4-(trifluoromethoxy)phenoxy]-4-methoxy-3-(trifluoromethyl)benzoyl]amino]pyridine-2-carboxamide] reads 0.4 nM; that for `COc1cc(Oc2ccc(OC(F)(F)F)c(F)c2OC)c(C(=O)Nc2ccc(C(N)=O)nc2)c(F)c1C(F)(F)F` [Compound 321, 5-[[2-fluoro-6-[3-fluoro-2-methoxy-4-(trifluoromethoxy)phenoxy]-4-methoxy-3-(trifluoromethyl)benzoyl]amino]pyridine-2-carboxamide], 11 nM; that for `COc1c(Oc2ccc(OC(F)(F)F)c(F)c2C(=O)Nc2ccnc(C(N)=O)c2)ccc(OC(F)(F)F)c1F` [Compound 322, 4-[[2-fluoro-6-[3-fluoro-2-methoxy-4-(trifluoromethoxy)phenoxy]-3-(trifluoromethoxy)benzoyl]amino]pyridine-2-carboxamide], 6.1 nM.
Turning to `COc1c(Oc2cc(C(F)(F)F)c(C)c(F)c2C(=O)Nc2ccnc(C(N)=O)c2)ccc(OC(F)(F)F)c1F` [Compound 323, 4-[[2-fluoro-6-[3-fluoro-2-methoxy-4-(trifluoromethoxy)phenoxy]-3-methyl-4-(trifluoromethyl)benzoyl]amino]pyridine-2-carboxamide], the IC50 is 0.8 nM.
The value for `COc1cc(Oc2ccc(OC(F)(F)F)c(F)c2OC)c(C(=O)Nc2ccnc(C(N)=O)c2)c(F)c1Cl` [Compound 324, 4-[[3-chloro-2-fluoro-6-[3-fluoro-2-methoxy-4-(trifluoromethoxy)phenoxy]-4-methoxy-benzoyl]amino]pyridine-2-carboxamide] was 1.7 nM.
On to `COc1c(Oc2cc(C(F)(F)F)c(OC)c(F)c2C(=O)Nc2ccnc(C(N)=O)c2)ccc(OC(F)(F)F)c1F` [Compound 325, 4-[[2-fluoro-6-[3-fluoro-2-methoxy-4-(trifluoromethoxy)phenoxy]-3-methoxy-4-(trifluoromethyl)benzoyl]amino]pyridine-2-carboxamide], for which the IC50 is 1.6 nM.

These data come from patent US12441703B2, “Carboxamides as modulators of sodium channels” (VERTEX PHARMACEUTICALS INCORPORATED, priority 2019, dated 2025).
